Test results published in the supplement of paper PMC4862054.

Legend:
Details in all cases: incubation time: 72 h
MDA-MB-468 = assay: normalised response (% of control), CellTiter-Glo; higher = more viable cells (100 = DMSO, 0 = benzethonium chloride kill control)
In short: (§1)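 In 384-well plates holding compound at 5 concentrations in 10-fold steps over a 10,000-fold range specific to each compound, breast cancer cell lines were seeded as 20 µl suspension and incubated 72 h. CellTox Green fluorescence was measured at 485/520 nm, after which CellTiter-Glo luminescence was measured following 10 min at room temperature. Plate signals were normalised to 0.1 % DMSO (100) and a positive kill control (0), and each value is the normalised signal at a single concentration.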

Hs578T = assay: as above
In short: as §1

HCC1599 = assay: as above
In short: as §1

CAL-51 [1] = assay: as above
In short: as §1

MDA-MB-231 = assay: as above
In short: as §1

BT-474 = assay: as above
In short: as §1

MDA-MB-453 [2] = assay: as above
In short: as §1

MCF-10A = assay: as above
In short: as §1

CAL-85-1 [3] = assay: as above
In short: as §1

BT-549 = assay: as above
In short: as §1

HDQ-P1 [4] = assay: as above
In short: as §1

HCC1937 = assay: as above
In short: as §1

MFM-223 = assay: as above
In short: as §1

CAL-120 = assay: as above
In short: as §1

HCC1143 = assay: as above
In short: as §1

MDA-MB-436 = assay: as above
In short: as §1

CAL-148 [5] = assay: as above
In short: as §1

SK-BR-3 = assay: as above
In short: as §1

DU-4475 [6] = assay: as above
In short: as §1

CAL-51 [7] = assay: normalised viability (% of control), CellTiter-Blue; higher = more viable cells (about 100 = DMSO control)
Procedure: (§2)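 DSRT, CellTiter-Blue viability, 72 h incubation. Signal is normalised to DMSO and benzethonium chloride controls. Value is the normalised response at dose 7.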

MDA-MB-453 [8] = assay: as above
Procedure: as §2

CAL-85-1 [9] = assay: as above
Procedure: as §2

HDQ-P1 [10] = assay: as above
Procedure: as §2

CAL-148 [11] = assay: as above
Procedure: as §2

DU-4475 [12] = assay: as above
Procedure: as §2

Row | SMILES | normalised response (MDA-MB-468) [%] | normalised response (Hs578T) [%] | normalised response (HCC1599) [%] | normalised response (CAL-51 [1]) [%] | normalised response (MDA-MB-231) [%] | normalised response (BT-474) [%] | normalised response (MDA-MB-453 [2]) [%] | normalised response (MCF-10A) [%] | normalised response (CAL-85-1 [3]) [%] | normalised response (BT-549) [%] | normalised response (HDQ-P1 [4]) [%] | normalised response (HCC1937) [%] | normalised response (MFM-223) [%] | normalised response (CAL-120) [%] | normalised response (HCC1143) [%] | normalised response (MDA-MB-436) [%] | normalised response (CAL-148 [5]) [%] | normalised response (SK-BR-3) [%] | normalised response (DU-4475 [6]) [%] | normalised viability (CAL-51 [7]) [%] | normalised viability (MDA-MB-453 [8]) [%] | normalised viability (CAL-85-1 [9]) [%] | normalised viability (HDQ-P1 [10]) [%] | normalised viability (CAL-148 [11]) [%] | normalised viability (DU-4475 [12]) [%]
1 | CC(C)(C)NC(=O)[C@H]1CC[C@H]2[C@@H]3CC[C@H]4NC(=O)C=C[C@]4(C)[C@H]3CC[C@]12C [Finasteride] (1000 nM) | 104 | 96.6 | 113 | 94.6 | 95.2 | 98.9 | 103 | 104 | 95 | 90.7 | 105 | 99.6 | 103 | 106 | 96.6 | 108 | 91.8 | 102 | 96.8 | 109 | 106 | 98.4 | 118 | 103 | 113
2 | Nc1ccn([C@@H]2O[C@H](CO)[C@@H](O)C2(F)F)c(=O)n1 [Gemcitabine] (100 nM) | 28.4 | 70 | 39 | 24.4 | 85 | 81.8 | 67.7 | 66.7 | 43.1 | 49.7 | 86 | 79.2 | 101 | 78.8 | 44.1 | 32.6 | 56 | 41.5 | 74.5 | 16.3 | 48.3 | 49.8 | 92.3 | 33.7 | 45.1
3 | CC(C)C[C@H](NC(=O)[C@@H](COC(C)(C)C)NC(=O)[C@H](Cc1ccc(O)cc1)NC(=O)[C@H](CO)NC(=O)[C@H](Cc1c[nH]c2ccccc12)NC(=O)[C@H](Cc1cnc[nH]1)NC(=O)[C@@H]1CCC(=O)N1)C(=O)N[C@@H](CCCNC(=N)N)C(=O)N1CCC[C@H]1C(=O)NNC(N)=O [Goserelin] (1000 nM) | 94.3 | 99.4 | 106 | 100 | 100 | 101 | 106 | 96.5 | 98.2 | 98.6 | 101 | 98.2 | 99.6 | 106 | 92.3 | 93.8 | 93.1 | 94.3 | 96.3 | 108 | 96 | 93.2 | 96.9 | 97.1 | 102
4 | CC(=O)[C@]1(O)Cc2c(O)c3c(c(O)c2[C@@H](O[C@H]2C[C@H](N)[C@H](O)[C@H](C)O2)C1)C(=O)c1ccccc1C3=O [Idarubicin] (100 nM) | 64.5 | 82.5 | 123 | 42.6 | 94.7 | 92.3 | 140 | 98.2 | 91 | 62.6 | 103 | 98 | 117 | 99.7 | 102 | 65.7 | 63.5 | 83.4 | 83.1 | 28 | 79.4 | 75.7 | 78.3 | 11.3 | 27.7
5 | C/C(=C\c1csc(C)n1)[C@@H]1C[C@@H]2O[C@]2(C)CCC[C@H](C)[C@H](O)[C@@H](C)C(=O)C(C)(C)[C@@H](O)CC(=O)N1 [Ixabepilone] (100 nM) | 29.1 | 104 | 103 | 30.6 | 96.9 | 103 | 109 | 110 | 99.5 | 23.6 | 100 | 102 | 105 | 95.8 | 97.5 | 101 | 97.8 | 106 | 102 | 108 | 78.5 | 80.5 | 78.1 | 86.5 | 93.7
6 | C=CCn1c(=O)c2cnc(Nc3ccc(N4CCN(C)CC4)cc3)nc2n1-c1cccc(C(C)(C)O)n1 [MK1775] (1000 nM) | 43.4 | 30 | 7.3 | 18.5 | 23.6 | 33.3 | 50.1 | 47.6 | 18.7 | 21.2 | 35.9 | 39.6 | 41.2 | 47.3 | 43.2 | 30.8 | 12.2 | 14.4 | 65.6 | 16.6 | 23.2 | 40.5 | 47.8 | 9.04 | 32.2
7 | CO[C@@H]1[C@H](N(C)C(=O)c2ccccc2)C[C@H]2O[C@]1(C)n1c3ccccc3c3c4c(c5c6ccccc6n2c5c31)C(=O)NC4 [Midostaurin] (1000 nM) | 26.9 | 26.1 | 94.5 | 20.8 | 50.3 | 52.1 | 120 | 27.8 | 85.8 | 32.6 | 65.1 | 63.7 | 75.8 | 54 | 55.9 | 77.5 | 80.5 | 61.4 | 51.5 | 14.5 | 67.9 | 81.1 | 52.8 | 82.2 | 8.53
